Results as given in patent US8551978B2 (Theravance, Inc., priority 2009, dated 2013).
Counter-ions that a name gives are not always drawn. Like-named read-outs stand apart in the source and are kept apart here.

Columns and labels:
[1] = biological target: hβ2 adrenergic receptor (Homo sapiens (Human), UniProt P07550); assay: Assay for determining adrenergic receptor agonist potency (cAMP Flashplate, HEK-293 cells); type: cell-based; conditions: data rounded to nearest 1 nM
[2] = biological target: hM3 muscarinic receptor (Homo sapiens (Human), UniProt P20309); assay: Radioligand binding assay for muscarinic receptors ([3H]-NMS displacement, CHO cell membranes)
Method in brief: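 [3H]-NMS displacement used homogenized CHO membranes, with test compounds at final concentrations of […]. Plates were incubated 6 hours at 37 °C, then filtered and read by liquid scintillation counting. A one-site competition fit gave values that were converted to Ki.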

[3] = test system: MCh-induced bronchoconstriction; assay: Einthoven assay: bronchoprotection against methacholine (MCh)-induced bronchoconstriction; type: in vivo, rat; conditions: for inhibition in vivo at 0.1 mg: inhaled or nasal, read-out: Broncho. at 24 h
Method in brief: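 Male Sprague-Dawley rats received 100 μg compound (unless stated) or water vehicle by 10-min inhalation. At set times, anesthetized, ventilated rats were challenged with IV MCh at 40 and 80 μg/kg (2.5-min infusions). Ventilation-pressure rise is expressed as % inhibition versus vehicle controls.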

[4] = hM3 Muscarinic Receptor Binding, data rounded to nearest 0.1 nM
[5] = rat, 100 μg by inhalation, 24 h after administration

Chain of hM3 muscarinic receptor (P20309 whole entry): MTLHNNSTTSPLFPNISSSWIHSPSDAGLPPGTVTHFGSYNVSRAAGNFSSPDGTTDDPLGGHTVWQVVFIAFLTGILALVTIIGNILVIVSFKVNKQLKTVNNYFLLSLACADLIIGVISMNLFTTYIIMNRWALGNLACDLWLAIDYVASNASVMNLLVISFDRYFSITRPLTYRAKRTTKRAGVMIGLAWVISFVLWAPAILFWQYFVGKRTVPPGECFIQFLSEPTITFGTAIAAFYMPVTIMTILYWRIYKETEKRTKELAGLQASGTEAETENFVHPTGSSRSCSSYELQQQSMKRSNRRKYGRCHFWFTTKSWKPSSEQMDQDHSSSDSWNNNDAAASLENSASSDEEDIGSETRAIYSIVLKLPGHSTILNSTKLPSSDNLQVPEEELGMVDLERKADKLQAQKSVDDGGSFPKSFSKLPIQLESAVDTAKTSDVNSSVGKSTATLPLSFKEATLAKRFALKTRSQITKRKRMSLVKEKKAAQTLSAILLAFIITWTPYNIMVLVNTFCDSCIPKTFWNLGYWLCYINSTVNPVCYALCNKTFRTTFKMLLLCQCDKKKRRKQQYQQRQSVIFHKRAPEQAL
Chain of hβ2 adrenergic receptor (P07550 whole entry): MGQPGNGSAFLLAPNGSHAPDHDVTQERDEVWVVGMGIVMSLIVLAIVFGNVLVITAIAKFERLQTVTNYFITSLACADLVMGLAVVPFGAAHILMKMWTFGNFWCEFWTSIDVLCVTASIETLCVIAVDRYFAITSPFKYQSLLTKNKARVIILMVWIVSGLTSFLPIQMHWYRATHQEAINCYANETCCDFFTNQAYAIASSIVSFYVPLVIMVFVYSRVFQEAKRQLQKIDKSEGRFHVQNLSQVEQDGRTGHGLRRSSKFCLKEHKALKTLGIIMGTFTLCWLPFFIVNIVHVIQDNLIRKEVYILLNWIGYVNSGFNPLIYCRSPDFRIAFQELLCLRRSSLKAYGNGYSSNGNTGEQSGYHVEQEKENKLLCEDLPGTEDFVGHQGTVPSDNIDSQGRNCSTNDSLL

SMILES	EC50 [1] [nM]	Ki [2, 4] [nM]	inhibition in vivo at 0.1 mg [3, 5] [%]	Ki [2] [nM]	Broncho. at 24 h [3, 5]	inhibition in vivo at 0.1 mg ([3]; Rattus norvegicus, 24 h) [%]
COc1ccc(CC(=O)NCc2ccc(N(C)C(=O)CCN3CCC(OC(=O)Nc4ccccc4-c4ccccc4)CC3)cc2)cc1C[C@@H](C)NC[C@H](O)c1ccc(O)c2[nH]c(=O)ccc12 [Compound I-82]	1	0.1	> 30			
COc1cc(CNC[C@H](O)c2ccc(O)c3[nH]c(=O)ccc23)ccc1NC(=O)CCCN(C)C(=O)CCN1CCC(OC(=O)Nc2ccccc2-c2ccccc2)CC1 [Compound I-3]	1	0.1	> 30			
COc1cc(NC(=O)CCCN(C)C(=O)CCN2CCC(OC(=O)Nc3ccccc3-c3ccccc3)CC2)ccc1CNC[C@H](O)c1ccc(O)c2[nH]c(=O)ccc12 [Compound I-4]	2	0.1	> 30			
COc1cc(NC(=O)CCCN(C)C(=O)CCN2CCC(OC(=O)Nc3ccccc3-c3ccccc3)CC2)c(Cl)cc1CNC[C@H](O)c1ccc(O)c2[nH]c(=O)ccc12 [Compound I-6]	1	0.1	> 30			
C[C@@H](Cc1ccc(CCNC(=O)Cc2ccc(N(C)C(=O)CCN3CCC(OC(=O)Nc4ccccc4-c4ccccc4)CC3)cc2)cc1)NC[C@H](O)c1ccc(O)c2[nH]c(=O)ccc12 [Compound I-89]	1		> 30	0.1		
Cc1ccc(C(=O)Nc2cccc(CC(C)NC[C@H](O)c3ccc(O)c4[nH]c(=O)ccc34)c2)cc1N(C)C(=O)CCN1CCC(OC(=O)Nc2ccccc2-c2ccccc2)CC1 (stereo partly drawn) [Compound I-37]	1			0.2	No	
COc1cc(CNC[C@H](O)c2ccc(O)c3[nH]c(=O)ccc23)ccc1NC(=O)CCCCN(C)C(=O)CCN1CCC(OC(=O)Nc2ccccc2-c2ccccc2)CC1 [Compound I-16]	1		> 30	0.1		
CC(Cc1cccc(CC(=O)NCCCN(C)C(=O)CCN2CCC(OC(=O)Nc3ccccc3-c3ccccc3)CC2)c1)NC[C@H](O)c1ccc(O)c2[nH]c(=O)ccc12 (stereo partly drawn) [Compound I-11]	1		> 30	0.1		
Cc1cc(CNC[C@H](O)c2ccc(O)c3[nH]c(=O)ccc23)ccc1NC(=O)CCCN(C)C(=O)CCN1CCC(OC(=O)Nc2ccccc2-c2ccccc2)CC1 [Compound I-2]	1			0.1	No	
CC(Cc1cccc(NC(=O)c2cccc(N(C)C(=O)CCN3CCC(OC(=O)Nc4ccccc4-c4ccccc4)CC3)c2)c1)NC[C@H](O)c1ccc(O)c2[nH]c(=O)ccc12 (stereo partly drawn) [Compound I-36]	1		> 30	0.2		
COc1cc(NC(=O)Cc2cccc(N(C)C(=O)CCN3CCC(OC(=O)Nc4ccccc4-c4ccccc4)CC3)c2)c(Cl)cc1CNC[C@H](O)c1ccc(O)c2[nH]c(=O)ccc12 [Compound I-61]	1	0.1	> 30			
COc1ccc(CC(=O)NCc2ccc(N(C)C(=O)CCN3CCC(OC(=O)Nc4ccccc4-c4ccccc4)CC3)cc2)cc1C[C@H](C)NC[C@H](O)c1ccc(O)c2[nH]c(=O)ccc12 [Compound I-83]	2	0.2	> 30			
C[C@@H](Cc1ccc(CNC(=O)c2cccc(N(C)C(=O)CCN3CCC(OC(=O)Nc4ccccc4-c4ccccc4)CC3)c2)cc1)NC[C@H](O)c1ccc(O)c2[nH]c(=O)ccc12 [Compound I-49]	1		> 30	0.1		
C[C@@H](Cc1cccc(CC(=O)NCc2ccc(N(C)C(=O)CCN3CCC(OC(=O)Nc4ccccc4-c4ccccc4)CC3)cc2)c1)NC[C@H](O)c1ccc(O)c2[nH]c(=O)ccc12 [Compound I-79]	1			0.1	No	
CN(CCCC(=O)Nc1cccc(CCNC[C@H](O)c2ccc(O)c3[nH]c(=O)ccc23)c1)C(=O)CCN1CCC(OC(=O)Nc2ccccc2-c2ccccc2)CC1 [Compound I-7, Biphenyl-2-ylcarbamic Acid 1-(2-{[3-(3-{2-[(R)-2-Hydroxy-2-(8-hydroxy-2-oxo-1,2-dihydroquinolin-5-yl)ethylamino]ethyl}phenylcarbamoyl)-propyl]methylcarbamoyl}ethyl)piperidin-4-yl Ester Ditrifluoroacetic Acid Salt]	1			0.1		> 30
CN(C(=O)CCN1CCC(OC(=O)Nc2ccccc2-c2ccccc2)CC1)c1ccc(CC(=O)NCc2cccc(CCNC[C@H](O)c3ccc(O)c4[nH]c(=O)ccc34)c2)cc1 [Compound I-65]	1		> 30	0.1		
CC(Cc1ccc(CNC(=O)Cc2ccc(N(C)C(=O)CCN3CCC(OC(=O)Nc4ccccc4-c4ccccc4)CC3)cc2)cc1)NC[C@H](O)c1ccc(O)c2[nH]c(=O)ccc12 (stereo partly drawn) [Compound I-67]	1		> 30	0.1		
C[C@@H](Cc1cccc(CC(=O)NCCCCN(C)C(=O)CCN2CCC(OC(=O)Nc3ccccc3-c3ccccc3)CC2)c1)NC[C@H](O)c1ccc(O)c2[nH]c(=O)ccc12 [Compound I-24]	1		> 30	0.1		
C[C@H](Cc1ccc(CNC(=O)c2cccc(N(C)C(=O)CCN3CCC(OC(=O)Nc4ccccc4-c4ccccc4)CC3)c2)cc1)NC[C@H](O)c1ccc(O)c2[nH]c(=O)ccc12 [Compound I-48]	1		> 30	0.3		
CC(Cc1cccc(CCC(=O)NCc2ccc(N(C)C(=O)CCN3CCC(OC(=O)Nc4ccccc4-c4ccccc4)CC3)cc2)c1)NC[C@H](O)c1ccc(O)c2[nH]c(=O)ccc12 (stereo partly drawn) [Compound I-91]	1		> 30	0.2		
Cc1ccc(C(=O)Nc2ccc(CC(C)NC[C@H](O)c3ccc(O)c4[nH]c(=O)ccc34)cc2)cc1N(C)C(=O)CCN1CCC(OC(=O)Nc2ccccc2-c2ccccc2)CC1 (stereo partly drawn) [Compound I-41]	1	0.3			No	
COc1cc(NC(=O)c2cccc(N(C)C(=O)CCN3CCC(OC(=O)Nc4ccccc4-c4ccccc4)CC3)c2)c(Cl)cc1CNC[C@H](O)c1ccc(O)c2[nH]c(=O)ccc12 [Compound I-31]	1	0.2	> 30			
Cc1cc(NC(=O)c2cccc(N(C)C(=O)CCN3CCC(OC(=O)Nc4ccccc4-c4ccccc4)CC3)c2)c(C)cc1CNC[C@H](O)c1ccc(O)c2[nH]c(=O)ccc12 [Compound I-30]	1			0.2	No	
CN(CCCCC(=O)Nc1cccc(CCNC[C@H](O)c2ccc(O)c3[nH]c(=O)ccc23)c1)C(=O)CCN1CCC(OC(=O)Nc2ccccc2-c2ccccc2)CC1 [Compound I-20]	1		> 30	0.1		
Cc1cc(CNC[C@H](O)c2ccc(O)c3[nH]c(=O)ccc23)ccc1NC(=O)c1ccc(C)c(N(C)C(=O)CCN2CCC(OC(=O)Nc3ccccc3-c3ccccc3)CC2)c1 [Compound I-28]	1			0.2	No	
C[C@H](Cc1cccc(CC(=O)NCCCN(C)C(=O)CCN2CCC(OC(=O)Nc3ccccc3-c3ccccc3)CC2)c1)NC[C@H](O)c1ccc(O)c2[nH]c(=O)ccc12 [Compound I-12]	1			0.1	No	
COc1ccc(CC(=O)NCc2ccc(N(C)C(=O)CCN3CCC(OC(=O)Nc4ccccc4-c4ccccc4)CC3)cc2)cc1CC(C)NC[C@H](O)c1ccc(O)c2[nH]c(=O)ccc12 (stereo partly drawn) [Compound I-81]	1	0.1	> 30			
Cc1cc(CNC[C@H](O)c2ccc(O)c3[nH]c(=O)ccc23)ccc1NC(=O)c1cccc(N(C)C(=O)CCN2CCC(OC(=O)Nc3ccccc3-c3ccccc3)CC2)c1 [Compound I-27]	1			0.1	No	
